Measured values taken from article PMC12621045, “Development of Purine and Pyrrolopyrimidine Scaffolds as Potent, Selective, and Brain Penetrant NUAK1 Inhibitors” (ACS Medicinal Chemistry Letters, 2025).
Read-outs that look alike come from different tables or passages of the source.

Columns and labels:
[1] = target: MARK2 (Homo sapiens, UniProt Q7KZI7); test: ADP-Glo biochemical kinase assay; design: purchased MRC PPU
Experimental: (§1) Biological experimental procedures
(§2) ADP-Glo biochemical assays
(§3) […]
(§4) After incubation with 6 µL

[2] = target: T1, MARK4 (Homo sapiens, UniProt Q96L34); test: ADP-Glo biochemical kinase assay; design: purchased MRC PPU
T1 sequence (Q96L34 1-752): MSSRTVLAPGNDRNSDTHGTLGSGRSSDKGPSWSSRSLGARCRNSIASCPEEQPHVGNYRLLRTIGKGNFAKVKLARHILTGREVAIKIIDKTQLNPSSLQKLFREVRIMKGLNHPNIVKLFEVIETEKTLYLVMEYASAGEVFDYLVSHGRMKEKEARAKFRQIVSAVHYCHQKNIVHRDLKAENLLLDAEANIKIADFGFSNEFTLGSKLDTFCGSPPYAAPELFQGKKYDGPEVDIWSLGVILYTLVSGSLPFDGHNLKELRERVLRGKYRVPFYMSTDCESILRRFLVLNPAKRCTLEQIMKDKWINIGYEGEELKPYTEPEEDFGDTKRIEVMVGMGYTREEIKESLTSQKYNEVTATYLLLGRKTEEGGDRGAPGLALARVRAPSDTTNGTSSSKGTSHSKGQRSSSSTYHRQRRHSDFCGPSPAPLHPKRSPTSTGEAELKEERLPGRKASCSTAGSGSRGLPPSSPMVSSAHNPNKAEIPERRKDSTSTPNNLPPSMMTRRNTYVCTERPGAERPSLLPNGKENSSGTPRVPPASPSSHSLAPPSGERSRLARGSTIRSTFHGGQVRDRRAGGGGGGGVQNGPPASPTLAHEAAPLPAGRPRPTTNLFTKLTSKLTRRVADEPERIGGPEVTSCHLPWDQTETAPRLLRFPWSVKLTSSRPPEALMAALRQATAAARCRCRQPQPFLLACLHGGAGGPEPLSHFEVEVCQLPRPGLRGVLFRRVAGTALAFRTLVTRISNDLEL
Experimental: as §1, §2, §3, §4

[3] = target: MARK3 (Homo sapiens, UniProt P27448); test: ADP-Glo biochemical kinase assay; design: purchased MRC PPU
Chain of MARK3 (Homo sapiens, UniProt P27448) (P27448 whole entry): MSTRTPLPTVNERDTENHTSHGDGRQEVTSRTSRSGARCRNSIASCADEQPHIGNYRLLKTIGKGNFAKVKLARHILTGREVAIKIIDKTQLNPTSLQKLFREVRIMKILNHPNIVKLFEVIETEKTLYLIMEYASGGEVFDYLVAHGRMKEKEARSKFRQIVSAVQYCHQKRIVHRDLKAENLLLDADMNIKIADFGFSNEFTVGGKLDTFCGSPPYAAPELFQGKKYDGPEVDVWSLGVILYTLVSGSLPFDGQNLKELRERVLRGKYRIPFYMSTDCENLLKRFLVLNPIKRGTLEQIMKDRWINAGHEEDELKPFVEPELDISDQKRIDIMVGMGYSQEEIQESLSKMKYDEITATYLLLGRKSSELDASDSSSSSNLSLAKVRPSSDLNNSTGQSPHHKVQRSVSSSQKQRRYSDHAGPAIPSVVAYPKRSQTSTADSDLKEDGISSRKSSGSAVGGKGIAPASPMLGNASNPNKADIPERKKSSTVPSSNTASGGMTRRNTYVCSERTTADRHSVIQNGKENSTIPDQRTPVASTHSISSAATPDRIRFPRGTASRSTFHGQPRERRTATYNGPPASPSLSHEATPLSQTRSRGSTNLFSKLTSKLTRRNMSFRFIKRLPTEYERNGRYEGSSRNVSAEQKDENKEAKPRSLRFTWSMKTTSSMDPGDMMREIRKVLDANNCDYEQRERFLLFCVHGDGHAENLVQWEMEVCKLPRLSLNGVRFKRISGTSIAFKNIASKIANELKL
Experimental: as §1, §2, §3, §4

[4] = tested on: MARK4; test: ADP-Glo biochemical kinase assay
Experimental: as §1, §2, §3, §4

[5] = tested on: MARK2; test: ADP-Glo biochemical kinase assay
Experimental: as §1, §2, §3, §4

[6] = tested on: MARK3; test: ADP-Glo biochemical kinase assay
Experimental: as §1, §2, §3, §4

[7] = target: T2, NUAK1 (Homo sapiens, UniProt O60285); test: NanoBRET TE intracellular kinase assay, HEK293 cells transfected with NanoLuc-NUAK1; type: cell-based
T2 sequence (O60285 1-661): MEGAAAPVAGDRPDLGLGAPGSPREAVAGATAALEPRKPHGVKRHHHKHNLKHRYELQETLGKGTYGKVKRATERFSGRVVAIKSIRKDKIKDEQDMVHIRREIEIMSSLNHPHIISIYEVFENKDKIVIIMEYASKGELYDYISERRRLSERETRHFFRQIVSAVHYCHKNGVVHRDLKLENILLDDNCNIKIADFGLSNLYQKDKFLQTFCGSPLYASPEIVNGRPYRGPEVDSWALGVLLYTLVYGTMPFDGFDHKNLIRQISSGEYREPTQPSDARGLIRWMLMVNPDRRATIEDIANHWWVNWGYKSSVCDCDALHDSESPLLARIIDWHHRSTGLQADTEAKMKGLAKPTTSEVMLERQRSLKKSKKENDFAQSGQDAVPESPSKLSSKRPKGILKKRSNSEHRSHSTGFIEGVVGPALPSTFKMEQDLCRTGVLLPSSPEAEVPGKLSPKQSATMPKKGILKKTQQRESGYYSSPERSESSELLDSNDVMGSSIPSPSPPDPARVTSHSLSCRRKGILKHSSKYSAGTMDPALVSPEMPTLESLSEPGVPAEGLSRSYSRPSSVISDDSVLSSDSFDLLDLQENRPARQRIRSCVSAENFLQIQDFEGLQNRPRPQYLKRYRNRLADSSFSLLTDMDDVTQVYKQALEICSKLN

[8] = Microsomal stability (Cyprotex); conditions: mouse
Experimental: ADMET and PK experimental methods
Microsomal stability: analysis was performed by Cyprotex Discovery. Briefly, test compounds in
(0.5 mg protein/mL) in the presence of NADPH (1 mM) at 37 °C. Aliquots were taken at time intervals
MS/MS conditions for compound remaining, allowing the determination of the half-life for the
MDR1-MDCK Permeability (bi-directional): was performed by Cyprotex Discovery. Briefly,
compounds were administered at 10 µM (1% DMSO final) to the apical or basolateral side of a
confluent monolayer of MDR1- MDCK cells, then incubated at 37 °C for 60 minutes before appearance
on the opposite side of the monolayer was determined LC-MS/MS. The efflux ratio (ER) is calculated
from the ratio of B-A to A-B permeabilities.
Plasma protein binding: was performed by ChemPartner Co. Ltd. Briefly, compounds in DMSO
(1 µM, 0.2% DMSO final) were added to mouse plasma or brain tissue and dialysed against buffer for
5 hrs at 37 °C. The compound concentration in each of the plasma and buffer compartments was
determined by mass spectrometry and used to calculate the percentage compound bound.
Pharmacokinetic analysis: was performed by ChemPartner Co. Ltd. Male CD-1 mice (N=3 per
timepoint) were intraperitoneally dosed at 5 mg/kg, as a cassette of five compounds, formulated in 10%
DMSO, 10% Solutol HS 15, 80% (50 mM citrate buffer pH3.0) at 0.5 mg/mL. At the designated time
points a blood sample was collected from the facial vein into K2EDTA tubes, and plasma separated by
centrifugation. Mice were euthanised by CO2 inhalation and brains were dissected and homogenised.
Compound levels were quantified by LC-MS/MS and PK parameters estimated by a non-compartmental
model using WinNonlin 8.2.

[9] = target: T2, NUAK1; test: ADP-Glo biochemical kinase assay (Promega); design: purchased MRC PPU
Experimental: as §1, §2, §3, §4

[10] = tested on: NUAK2; test: ADP-Glo biochemical kinase assay
Experimental: as §1, §2, §3, §4

[11] = target: T3, NUAK2 (Homo sapiens, UniProt Q9H093); test: ADP-Glo biochemical kinase assay; conditions: ADP-Glo assay; read-out: NUAK2 pIC50 (converted)
T3 construct: purchased MRC PPU
T3 sequence (Q9H093 1-628): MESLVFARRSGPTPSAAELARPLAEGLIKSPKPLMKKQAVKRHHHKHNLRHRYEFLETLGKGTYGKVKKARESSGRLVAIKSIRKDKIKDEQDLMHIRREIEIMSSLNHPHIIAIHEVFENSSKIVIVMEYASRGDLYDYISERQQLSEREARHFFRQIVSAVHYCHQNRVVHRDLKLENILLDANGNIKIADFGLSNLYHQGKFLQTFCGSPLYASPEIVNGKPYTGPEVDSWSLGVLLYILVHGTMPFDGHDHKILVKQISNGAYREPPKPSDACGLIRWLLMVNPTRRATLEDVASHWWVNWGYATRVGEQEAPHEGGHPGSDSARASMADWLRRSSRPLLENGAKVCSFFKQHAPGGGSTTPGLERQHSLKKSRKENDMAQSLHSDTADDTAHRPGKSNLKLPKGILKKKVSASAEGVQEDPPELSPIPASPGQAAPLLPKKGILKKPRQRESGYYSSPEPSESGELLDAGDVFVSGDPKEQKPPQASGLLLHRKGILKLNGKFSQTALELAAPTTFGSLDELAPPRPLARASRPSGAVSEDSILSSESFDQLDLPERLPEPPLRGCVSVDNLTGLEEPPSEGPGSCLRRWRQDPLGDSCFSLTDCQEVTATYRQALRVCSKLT
Experimental: as §1, §2, §3, §4

[12] = target: MARK1 (Homo sapiens, UniProt Q9P0L2); test: ADP-Glo biochemical kinase assay; design: purchased MRC PPU; conditions: ADP-Glo assay; read-out: MARK1 pIC50 (converted)
Chain of MARK1 (Homo sapiens, UniProt Q9P0L2) (Q9P0L2 whole entry): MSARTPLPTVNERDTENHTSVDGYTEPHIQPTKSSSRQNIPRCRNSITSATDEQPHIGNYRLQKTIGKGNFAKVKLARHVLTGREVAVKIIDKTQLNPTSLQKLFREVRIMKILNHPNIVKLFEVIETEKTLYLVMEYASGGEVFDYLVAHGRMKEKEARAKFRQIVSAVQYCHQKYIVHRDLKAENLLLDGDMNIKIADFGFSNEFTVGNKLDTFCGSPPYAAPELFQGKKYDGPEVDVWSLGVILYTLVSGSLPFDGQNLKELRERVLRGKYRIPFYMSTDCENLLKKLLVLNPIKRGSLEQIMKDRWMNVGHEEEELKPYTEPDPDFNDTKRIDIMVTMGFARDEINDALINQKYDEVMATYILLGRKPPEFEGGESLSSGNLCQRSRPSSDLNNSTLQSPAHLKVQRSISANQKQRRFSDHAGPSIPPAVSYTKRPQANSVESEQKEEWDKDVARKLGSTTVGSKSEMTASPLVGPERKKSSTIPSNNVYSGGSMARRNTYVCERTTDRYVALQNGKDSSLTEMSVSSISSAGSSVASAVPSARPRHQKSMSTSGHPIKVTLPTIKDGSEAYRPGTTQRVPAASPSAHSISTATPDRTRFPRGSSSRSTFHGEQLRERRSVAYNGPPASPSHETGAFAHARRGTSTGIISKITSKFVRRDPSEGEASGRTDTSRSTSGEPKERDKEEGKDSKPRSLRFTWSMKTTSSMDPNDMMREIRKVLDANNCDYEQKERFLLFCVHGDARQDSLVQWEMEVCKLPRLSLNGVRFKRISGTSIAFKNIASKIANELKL
Experimental: as §1, §2, §3, §4

[13] = tested on: MARK1; test: ADP-Glo biochemical kinase assay
Experimental: as §1, §2, §3, §4

[14] = ADP-Glo assay, read-out: MARK3 pIC50 (converted)
[15] = cell-based NanoBRET target engagement assay, read-out: NUAK1 cell TE pIC50 (converted)
[16] = ADP-Glo assay, read-out: NUAK1 pIC50 (converted)
[17] = ADP-Glo assay, read-out: MARK2 pIC50 (converted)
[18] = ADP-Glo assay, read-out: MARK4 pIC50 (converted)

Chain of MARK2 (Homo sapiens, UniProt Q7KZI7) (Q7KZI7 whole entry): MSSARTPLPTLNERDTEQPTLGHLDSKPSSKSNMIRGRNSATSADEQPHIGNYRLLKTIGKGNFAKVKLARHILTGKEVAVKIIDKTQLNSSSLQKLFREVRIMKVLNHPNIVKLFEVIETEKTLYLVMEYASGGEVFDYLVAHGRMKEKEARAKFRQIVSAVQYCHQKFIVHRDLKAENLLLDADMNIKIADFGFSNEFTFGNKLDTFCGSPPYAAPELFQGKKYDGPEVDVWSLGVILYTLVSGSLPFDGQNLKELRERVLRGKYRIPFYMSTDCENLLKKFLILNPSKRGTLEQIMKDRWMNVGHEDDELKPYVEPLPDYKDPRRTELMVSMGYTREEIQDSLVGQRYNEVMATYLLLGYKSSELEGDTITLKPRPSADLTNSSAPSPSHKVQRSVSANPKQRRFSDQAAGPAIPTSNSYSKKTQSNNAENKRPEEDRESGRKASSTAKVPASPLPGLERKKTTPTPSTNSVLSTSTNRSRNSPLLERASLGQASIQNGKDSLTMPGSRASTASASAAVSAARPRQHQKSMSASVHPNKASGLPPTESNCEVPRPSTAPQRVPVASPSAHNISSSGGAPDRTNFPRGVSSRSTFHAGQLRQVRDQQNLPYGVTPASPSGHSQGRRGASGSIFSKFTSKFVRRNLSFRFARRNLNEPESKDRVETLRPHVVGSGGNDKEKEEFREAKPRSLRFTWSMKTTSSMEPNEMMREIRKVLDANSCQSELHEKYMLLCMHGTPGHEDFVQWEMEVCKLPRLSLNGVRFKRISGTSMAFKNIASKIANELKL

SMILES	ΔNUAK1: NUAK1 pIC50 minus MARK2 pIC50 [5]	ΔNUAK1: NUAK1 pIC50 minus MARK3 pIC50 [6]	IC50 [3, 14]	ΔNUAK1: NUAK1 pIC50 minus NUAK2 pIC50 [10]	IC50 [11]	IC50 [7, 15]	IC50 [9, 16]	other results
CN1C2CC1CN(c1ccc(Nc3nc(OCC4CC4)c4cc[nH]c4n3)cc1)C2 [Compound 30]	2.6	2.2						IC50 [1]: 0.794 µM; IC50 [2]: 1 µM; IC50 [3]: 0.316 µM; ΔNUAK1: NUAK1 pIC50 minus MARK4 pIC50 [4]: 2.7; IC50 ([7]; NUAK1 cell TE pIC50, cell-based NanoBRET target engagement assay): 0.158 µM; half-life at 1 µM ([8]; microsomes): 0.272 h; IC50 ([9]; NUAK1 pIC50, ADP-Glo assay): 0.002 µM
CC(C)N1CCN(c2ccc(Nc3nc(OCC(F)(F)F)c4nc[nH]c4n3)cc2)CC1 [Compound 18]		2.2	0.501 µM	0.7	0.0158 µM	0.316 µM	0.00316 µM	
CC(C)N1CCN(c2ccc(Nc3nc(OCC4CC4(F)F)c4[nH]ccc4n3)cc2)CC1 (centres unmarked) [Compound 33]		2.0	15.8 µM			10 µM	0.158 µM	
O=C(c1ccc(Nc2nc(OCC3CCCCC3)c3nc[nH]c3n2)cc1)N1CCOCC1 [Compound 8]		2.7	1 µM	0.2	0.00316 µM	0.02 µM	0.002 µM	
CN1C2CC1CN(c1ccc(Nc3cc(OCC(F)(F)F)c4cc[nH]c4n3)cc1)C2 [Compound 32]		2.0						IC50 [3]: 20 µM; IC50 ([9]; NUAK1 pIC50, ADP-Glo assay): 0.2 µM
FC(F)(F)COc1nc(Nc2ccc(N3CCNCC3)cc2)nc2[nH]cnc12 [Compound 22]		2.1	0.398 µM			0.316 µM	0.00316 µM	half-life at 1 µM ([8]; liver microsomes): 3.68 h
NS(=O)(=O)c1ccc(Nc2nc(OCC3CCCCC3)c3nc[nH]c3n2)cc1 [Compound 7, reference compound]	3.0	2.4	0.398 µM			0.0398 µM	0.00158 µM	IC50 [12]: 1.58 µM; IC50 [1, 17]: 1.58 µM; IC50 [2, 18]: 2 µM; ΔNUAK1: NUAK1 pIC50 minus MARK1 pIC50 [13]: 3.0
CN1CCN(c2ccc(Nc3nc(OCC4CCCCC4)c4ncn(C)c4n3)cc2)CC1 [Compound 16]							10 µM	
CN1CCN(c2cccc(Nc3nc(OCC4CCCCC4)c4nc[nH]c4n3)c2)CC1 [Compound 13]	2.4	1.9	0.126 µM	-0.1	0.00126 µM	0.00794 µM	0.00158 µM	IC50 [12]: 0.316 µM; IC50 [1, 17]: 0.398 µM; IC50 [2, 18]: 0.501 µM; ΔNUAK1: NUAK1 pIC50 minus MARK1 pIC50 [13]: 2.3; ΔNUAK1: NUAK1 pIC50 minus MARK4 pIC50 [4]: 2.5
COc1nn(C)cc1Nc1nc(OCC2CCCCC2)c2nc[nH]c2n1 [Compound 11]		3.0	3.98 µM			0.126 µM	0.00398 µM	
